Laboratory results: US10844027B2, “Carboxylic diarylthiazepineamines as mu-opioid receptor agonists” (THE TRUSTEES OF COLUMBIA UNIVERSITY IN THE CITY OF NEW YORK, priority 2015, dated 2020)
Structures can show the parent of a compound that is named as a salt.

Tests used:
[1] = target: T1, human delta-opioid receptor (DOR) (Homo sapiens, UniProt P41143); experiment: BRET assay measuring G protein activation, agonist activity at human DOR; format: cell-based
T1 construct: expressed in transfected cells; host or cells: HEK-293T
T1 sequence (P41143 whole entry): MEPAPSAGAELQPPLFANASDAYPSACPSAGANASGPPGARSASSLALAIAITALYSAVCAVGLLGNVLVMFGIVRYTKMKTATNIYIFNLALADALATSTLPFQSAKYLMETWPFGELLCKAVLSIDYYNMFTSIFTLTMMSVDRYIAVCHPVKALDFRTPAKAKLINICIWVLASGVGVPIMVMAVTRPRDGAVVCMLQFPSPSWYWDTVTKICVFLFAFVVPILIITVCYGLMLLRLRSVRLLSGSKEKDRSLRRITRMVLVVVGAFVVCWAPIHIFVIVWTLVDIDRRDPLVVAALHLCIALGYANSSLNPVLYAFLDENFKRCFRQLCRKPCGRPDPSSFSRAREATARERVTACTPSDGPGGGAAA
Description: The diarylthiazepinamine esters (6) and carboxylic acids (7) were tested for agonist activity at the human mu-opioid receptor (MOR) and delta-opioid receptor (DOR) using bioluminescence resonance energy transfer (BRET) assays measuring G protein activation as previously described (Table 1) (Rives, M.-L. et al. 2012; Negri, A. et al. 2013).
Human MOR or DOR cDNA was transfected alongside GαoB with RLuc8 inserted at position 91 (GαoB—RLuc8), Gβ1 (β1), and Gγ2 fused to the full-length mVenus at its N terminus (mVenus-γ2) into HEK-293T cells (5×10^6 cells/plate) in 10-cm dishes using PEI (Polysciences Inc.; Warrington, Pa.) in a 1:1 ratio diluted in Opti-MEM (Life Technologies Corp.; Grand Island, N.Y.) to assay for G protein activation as described previously (Rives, M.-L. et al. 2012; Negri, A. et al. 2013). Cells were maintained in Dulbecco's Modified Eagle Medium (high glucose #11965; Life Technologies) supplemented with 10% FBS (Premium Select, Atlanta Biologicals; Atlanta, Ga.) and 100 U/mL penicillin and 100 μg/mL streptomycin (#15140, Life Technologies). After 24 hours the media was changed, and the experiment was performed 24 hours later (48 hours after transfection).
(§1) Transfected cells were dissociated and re-suspended in phosphate-buffered saline (PBS). Approximately 200,000 cells/well were added to a black-framed, white well 96-well plate (#60050; Perkin Elmer; Waltham, Mass.). The microplate was centrifuged and the cells were re-suspended in PBS. Then 5 μM of the luciferase substrate coelenterazine H was added to each well for 5 minutes. Following coelenterazine H addition, ligands were added and the BRET signal was measured at 5 minutes on a PHERAstar FS plate reader. Quantification of the BRET signal required calculating the ratio of the light emitted by the energy acceptor, mVenus (510-540 nm), over the light emitted by the energy donor, RLuc8 (485 nm). […] Dose response curves were fit using a three-parameter logistics equation in GraphPad Prism 6.

[2] = target: T2, human mu-opioid receptor (MOR) (Homo sapiens, UniProt P35372); experiment: BRET assay measuring G protein activation, agonist activity at human MOR; format: cell-based
T2 construct: expressed in transfected cells; host or cells: HEK-293T
T2 sequence (P35372 whole entry): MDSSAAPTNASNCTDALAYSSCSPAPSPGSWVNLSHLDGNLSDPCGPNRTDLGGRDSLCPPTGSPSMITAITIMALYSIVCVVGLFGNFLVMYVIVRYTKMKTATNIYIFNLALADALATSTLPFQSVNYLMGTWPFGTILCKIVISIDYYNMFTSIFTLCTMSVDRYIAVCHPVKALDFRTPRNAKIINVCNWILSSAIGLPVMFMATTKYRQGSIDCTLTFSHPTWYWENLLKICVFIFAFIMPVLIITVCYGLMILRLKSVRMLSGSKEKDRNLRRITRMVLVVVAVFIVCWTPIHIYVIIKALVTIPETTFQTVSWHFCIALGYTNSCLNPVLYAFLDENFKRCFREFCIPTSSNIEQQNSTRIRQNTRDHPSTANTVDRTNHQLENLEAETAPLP
Description: After 24 hours the media was changed, and the experiment was performed 24 hours later (48 hours after transfection).
as §1, with “Approximately 200,000 cells/well were added to a black-framed, white well 96-well plate (#60050; Perkin Elmer; Waltham, Mass.).” left out

[3] = Brain pharmacokinetics of tianeptine and its 5-carbon metabolite (7i) in mice
Description: Brain samples were collected from three mice at 0.08, 0.25, 0.5, 1, 2, 4, 8 and 24 h, homogenized using ice-cold phosphate buffer saline (pH 7.4), and stored below −70° C. until analysis. Total homogenate volume was three times the tissue weight. All samples were processed for analysis by protein precipitation using acetonitrile (ACN) and analyzed with a fit-for-purpose LC/MS/MS method (LLOQ—1.01 ng/mL in brain). Pharmacokinetic parameters were calculated using the non-compartmental analysis tool of Phoenix WinNonlin® (Version 6.3).

[4] = brain, C57BL/6 mice, single injection (30 mg/kg, i.p.) of tianeptine
[5] = brain, mice, after tianeptine 30 mg/kg i.p.
[6] = male, C57BL/6, mouse, in vivo, ip, 30 mg/kg

CCOC(=O)CCCNC1c2ccccc2N(C)S(=O)(=O)c2cc(Br)ccc21 (stereo not shown) [Compound 6c, Ethyl 4-((3-bromo-6-methyl-5,5-dioxido-6,11-dihydrodibenzo[c,f][1,2]thiazepin-11-yl)amino)butanoate]
EC50 [1]: > 10 µM
EC50 [2]: 0.27 ± 0.038 µM

CN1c2ccccc2C(NCCCCC(=O)O)c2ccc(Br)cc2S1(=O)=O (stereo not shown) [Compound 7d, 5-((3-Bromo-6-methyl-5,5-dioxido-6,11-dihydrodibenzo[c,f][1,2]thiazepin-11-yl)amino)pentanoic acid hydrochloride salt]
EC50 [1]: > 10 µM
EC50 [2]: 0.405 µM

CN1c2ccccc2C(NCCC(=O)O)c2ccc(Br)cc2S1(=O)=O (stereo not shown) [Compound 7a, 3-((3-Bromo-6-methyl-5,5-dioxido-6,1-dihydrodibenzo[c,f][1,2]thiazepin-11-yl)amino)propanoic acid hydrochloride salt]
EC50 [1]: > 10 µM
EC50 [2]: 4.7 ± 1.4 µM

CN1c2ccccc2C(NCCC(=O)O)c2ccc(I)cc2S1(=O)=O (stereo not shown) [Compound 7b, 3-((3-Iodo-6-methyl-5,5-dioxido-6,11-dihydrodibenzo[c,f][1,2]thiazepin-11-yl)amino) propanoic acid hydrochloride salt]
EC50 [1]: > 10 µM
EC50 [2]: 1.2 ± 0.3 µM

CN1c2ccccc2C(NCCCCCCC(=O)O)c2ccc(Cl)cc2S1(=O)=O (stereo not shown) [Tianeptine, tianeptine, reference compound]
EC50 [1]: 37.4 ± 11.2 µM

CN1c2ccccc2C(NCCCCCC(=O)O)c2ccc(Br)cc2S1(=O)=O (stereo not shown) [Compound 7f, 6-((3-Bromo-6-methyl-5,5-dioxido-6,11-dihydrodibenzo[c,f][1,2]thiazepin-11-yl)amino)hexanoic acid hydrochloride salt]
EC50 [1]: 23.7 ± 1.5 µM
EC50 [2]: 0.133 ± 0.0132 µM

CN1c2ccccc2C(NCCCCC(=O)O)c2ccc(Cl)cc2S1(=O)=O.Cl (stereo not shown) [Compound 7i, 5-((3-Chloro-6-methyl-5,5-dioxido-6,11-dihydrodibenzo[c,f][1,2]thiazepin-11-yl)amino)pentanoic acid hydrochloride salt]
EC50 [1]: > 10 µM
AUClast [3, 4]: 5963 ng·h/g
CL [3, 4]: 78 mL/min/kg
brain exposure (as measured by AUC) compared to the parent compound (tianeptine) [3, 5]: greater
half-life compared to the parent compound (tianeptine) [3, 5]: significantly longer
Cmax [3, 6]: 2860 ng/g
Tmax [3, 6]: 0.5 h
half-life [3, 6]: 2.33 h
EC50 [2]: 0.361 ± 0.0929 µM

CN1c2ccccc2C(NCCCCC(=O)O)c2ccc(I)cc2S1(=O)=O (stereo not shown) [Compound 7e, 5-((3-Iodo-6-methyl-5,5-dioxido-6,11-dihydrodibenzo[c,f][1,2]thiazepin-11-yl)amino)pentanoic acid hydrochloride salt]
EC50 [1]: 8.9 ± 0.007 µM
EC50 [2]: 0.0183 ± 0.0002 µM

CCOC(=O)CCCCCNC1c2ccccc2N(C)S(=O)(=O)c2cc(I)ccc21 (stereo not shown) [Compound 6g, Ethyl 6-((3-iodo-6-methyl-5,5-dioxido-6,11l-dihydrodibenzo[c,f][1,2]thiazepin-11-yl)amino)hexanoate]
EC50 [1]: 8.5 ± 6.3 µM
EC50 [2]: 0.0485 ± 0.0049 µM

CCOC(=O)CCNC1c2ccccc2N(C)S(=O)(=O)c2cc(I)ccc21 (stereo not shown) [Compound 6b, Ethyl 3-((3-iodo-6-methyl-5,5-dioxido-6,11-dihydrodibenzo[c,f][1,2]thiazepin-11-yl)amino)propanoate]
EC50 [1]: > 10 µM
EC50 [2]: 1.6 ± 0.2 µM

CN1c2ccccc2C(NCCC(=O)O)c2ccc(Cl)cc2S1(=O)=O (stereo not shown) [Compound 7h, 3-((3-Chloro-6-methyl-5,5-dioxido-6,11-dihydrodibenzo[c,f][1,2]thiazepin-11-yl)amino)propanoic acid hydrochloride salt]
EC50 [1]: > 10 µM
EC50 [2]: 24.9 ± 12.6 µM

CCOC(=O)CCNC1c2ccccc2N(C)S(=O)(=O)c2cc(Br)ccc21 (stereo not shown) [Compound 6a, Ethyl 3-((3-bromo-6-methyl-5,5-dioxido-6,11l-dihydrodibenzo[c,f][1,2]thiazepin-11-yl)amino)propanoate]
EC50 [1]: > 10 µM
EC50 [2]: 5.9 ± 1 µM

CN1c2ccccc2C(NCCCC(=O)O)c2ccc(Br)cc2S1(=O)=O (stereo not shown) [Compound 7c, 4-((3-Bromo-6-methyl-5,5-dioxido-6,11-dihydrodibenzo[c,f][1,2]thiazepin-11-yl)amino)butanoic acid hydrochloride salt]
EC50 [1]: > 10 µM
EC50 [2]: 2 ± 0.3 µM

CCOC(=O)CCCCNC1c2ccccc2N(C)S(=O)(=O)c2cc(Br)ccc21 (stereo not shown) [Compound 6d, Ethyl 5-((3-bromo-6-methyl-5,5-dioxido-6,11-dihydrodibenzo[c,f][1,2]thiazepin-11-yl)amino)pentanoate]
EC50 [2]: 0.12 µM

CCOC(=O)CCCCNC1c2ccccc2N(C)S(=O)(=O)c2cc(Cl)ccc21 (stereo not shown) [Compound 6i, Ethyl 5-((3-chloro-6-methyl-5,5-dioxido-6,11-dihydrodibenzo[c,f][1,2]thiazepin-11-yl)amino)pentanoate]
EC50 [1]: > 10 µM
EC50 [2]: 0.533 ± 0.267 µM

CN1c2ccccc2C(NCCCCCC(=O)O)c2ccc(I)cc2S1(=O)=O (stereo not shown) [Compound 7g, 6-((3-Iodo-6-methyl-5,5-dioxido-6,11-dihydrodibenzo[c,f][1,2]thiazepin-11-yl)amino)hexanoic acid hydrochloride salt]
EC50 [1]: 5.1 ± 1.4 µM
EC50 [2]: 0.0243 ± 0.0045 µM

CCOC(=O)CCCCCNC1c2ccccc2N(C)S(=O)(=O)c2cc(Br)ccc21 (stereo not shown) [Compound 6f, Ethyl 6-((3-bromo-6-methyl-5,5-dioxido-6,11-dihydrodibenzo[c,f][1,2]thiazepin-11-yl)amino)hexanoate]
EC50 [1]: 11.7 ± 0.06 µM
EC50 [2]: 0.0908 ± 0.0314 µM

CCOC(=O)CCCCNC1c2ccccc2N(C)S(=O)(=O)c2cc(I)ccc21 (stereo not shown) [Compound 6e, Ethyl 5-((3-iodo-6-methyl-5,5-dioxido-6,11-dihydrodibenzo[c,f][1,2]thiazepin-11-yl)amino)pentanoate]
EC50 [1]: 6.8 ± 0.03 µM
EC50 [2]: 0.0282 ± 0.0032 µM

CCOC(=O)CCCCCNC1c2ccccc2N(C)S(=O)(=O)c2cc(Cl)ccc21 (stereo not shown) [Compound 6j, Ethyl 6-((3-chloro-6-methyl-5,5-dioxido-6,11-dihydrodibenzo[c,f][1,2]thiazepin-11-yl)amino)hexanoate]
EC50 [1]: 13.9 ± 4.8 µM
EC50 [2]: 0.318 ± 0.162 µM
